Source: patent US10786459B2, “Twin-screw dry granulation for producing solid formulations” (R. P. Scherer Technologies LLC, priority 2016, dated 2020)
Structures can show the parent of a compound that is named as a salt.

Columns and labels:
Type in all cases: physicochemical
[1] = Thermogravimetric analysis (TGA) of OND
Protocol: Thermogravimetric analysis (TGA) was used to determine weight loss of OND due to dehydration. A weighed sample of OND was heated from 25° C. to 300° C. at a rate of 20° C./min in a platinum pan under an inert nitrogen atmosphere purge flowing at a rate of 20 ml per minute. Heating caused loss of 2 moles of loosely bound water from each mole of OND dihydrate.

[2] = Dynamic vapor sorption (DVS) of OND; settings: 25 °C
Protocol: Dynamic vapor sorption (DVS) was then used to measure the weight loss of OND during an isotherm dehydration study. The DVS apparatus (Surface Measurement Systems, London, UK) was a commercially available water sorption apparatus, which allowed an OND sample to be weighed under defined temperature and humidity conditions. About 14 mg of OND was weighed onto an aluminum pan. The DVS apparatus was programmed to run from 0% to 90% relative humidity (RH) at increments of 10% RH and then again going from 90% back to 0% RH at decrements of 10% RH. The study was conducted at 25° C. and in triplicate. The accuracy of the DVS apparatus was ±1.0% for the RH and ±0.2° C. for the temperature.

[3] = Hot-stage microscopy (HSM) of OND; settings: heated 35 to 150 °C at 2 °C/min in silicone oil
Protocol: Hot-stage microscopy (HSM) was used to capture images at different stages of OND transformation. A glass slide with a sample of a small amount of OND dispersed in silicone oil was inserted into a hot-stage system (FTIR 600, Linkam Scientific Instruments, Surrey, UK). The OND sample was examined while being heated from 35° C. to 150° C. at a constant rate of 2° C./min. A camera-mounted optical microscope (Cary 620 IR, Agilent Technologies, Santa Clara, Calif., USA) equipped with a hot-stage was used to capture images at different stages of the OND transformation.

[4] = DSC/FTIR compatibility and crystallinity of OND (Example 3); settings: 1:1 ratio
Text: Differential scanning calorimetry (Diamond DSC, Perkin Elmer Life and Analytical Sciences, 710 Bridgeport Ave., Conn., USA) equipped with Pyris manager software (Shelton, Conn., USA) and Fourier transform infrared spectroscopy (FTIR, Agilent Technologies Cary 660, Santa Clara, Calif.) were used to study the compatibility of OND with various polymeric carriers in 1:1 ratio in a dry granulation process carried out in a twin-screw extruder to provide granules used to produce extended release tablets. Samples were prepared by hermetically sealing approximately 3-5 mg of pure OND or powder mixture in aluminum pans, which were then heated over a temperature range of 40-250° C. at a linear heating rate of 10° C./min under an inert nitrogen atmosphere. An FTIR bench equipped with a […]® attenuated total reflection (Pike Technologies, Madison, Wis.) was used to generate mid-infrared spectra in the range of 4000-650 cm-1, which was fitted with a single bounce diamond coated ZnSe internal reflection element. […] Thus, the crystalline structure of OND was preserved in the granules.

temperature range of dehydration event (TGA) ([1]; TGA thermogram): 60-105 °C
weight lost (TGA) ([1]; heated from 60-105 °C, 20 °C/min, nitrogen): about 10%
weight gain (DVS) ([2]; RH increased beyond 20% up to 90%): 9.2%
weight gain (DVS) ([2]; RH increased from 0% to 10%): 2.67%
weight gain (DVS) ([2]; RH increased to 20%): 8.9%
weight loss (DVS) ([2]; at 0% RH): 9.5%
weight decrease (DVS) ([2]; desorption, at 10% RH): up to 4.44%
temperature at which crystals started dehydration (HSM) [3]: 90 °C
compatibility of OND with polymeric carriers [4]: compatible
SMILES: Cc1nccn1CC1CCc2c(c3ccccc3n2C)C1=O (stereo not drawn) [OND, Ondansetron HCl dihydrate]
